Assay results from patent US20040019080A1, “Prevention and treatment of migraine and other recurrent headaches using leukotriene LTD4 receptor blocker drugs” (priority 1998, published 2004).
Entries after “also recorded” stand apart in the source; their conditions may differ. Like-named read-outs stand apart in the source and are kept apart here.

Experiments:
patients with migraines = test: Post-publication and unsolicited patient/physician reports, chronic and emergent migraine treatment; format: in vivo, human; conditions: unsolicited letters, comments, website posting
Source text: The Applicant herein (Sheftell) initially published their leukotriene-migraine findings in abstract form and as a poster session in mid-1999, at a conference of physicians who specialize in treating headaches. That presentation was summarized shortly thereafter in Family Practice News, a newsletter for physicians, and it was followed in February 2000 by a full article in a refereed journal (Sheftell et al, “Montelukast in the prophylaxis of migraine: “potential role for leukotriene modifiers,” Headache 40: 158-63 (2000)).

asthma patients [1] = conditions: cited from earlier work
LTD4 receptors = molecular target: T1, LTD4 receptors (Homo sapiens, UniProt Q9Y271); conditions: cited from earlier work
T1 sequence (Q9Y271 1-337): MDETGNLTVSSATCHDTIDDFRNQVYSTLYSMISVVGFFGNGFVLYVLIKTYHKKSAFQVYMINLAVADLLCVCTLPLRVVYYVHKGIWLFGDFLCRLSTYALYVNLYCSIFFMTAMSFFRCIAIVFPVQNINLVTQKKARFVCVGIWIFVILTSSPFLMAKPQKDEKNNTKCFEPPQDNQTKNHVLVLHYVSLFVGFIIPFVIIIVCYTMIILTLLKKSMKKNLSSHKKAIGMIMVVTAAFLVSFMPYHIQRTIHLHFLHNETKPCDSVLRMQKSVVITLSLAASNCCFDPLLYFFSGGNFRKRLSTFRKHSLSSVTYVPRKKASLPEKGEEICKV

asthma patients [2] = conditions: cited from earlier work; for safety and tolerability in chronic use: used every day over a continuous period of years
LTC4 receptors = conditions: cited from earlier work
LTE4 receptors = conditions: cited from earlier work
[3] = system: patients who suffered from migraine without aura; test: Open-label clinical trial of daily montelukast in long-term migraine sufferers

| SMILES | reported outcome of chronic daily use for migraines (patients with migraines) | asthma patients reporting headaches (asthma patients [1]; more than 4000 asthma patients tested) [%] | blocking / activity at LTD4 receptors (LTD4 receptors) | time of daily oral ingestion before noticeable effects in reducing the frequency of asthma attacks (asthma patients [2]; tablets, daily oral) | safety and tolerability in chronic use (asthma patients [2]) | blocking of LTC4 receptors (LTC4 receptors) | blocking / activity at LTE4 receptors (LTE4 receptors) | asthma patients reporting headaches (asthma patients [1]; nearly 2000 asthma patients tested) [%] | adverse events reported by patients ([3]; 3-month treatment, 17 patients) | patients reporting a decrease in the number of moderate headaches ([3]; all reporting patients) [%] | number of mild headaches reported during treatment ([3]; mild category, baseline 1.53, mean per month (FIG. 2)) | mean number of moderate attacks per month during treatment ([3]; moderate category, baseline 5.5, not statistically significant) [attacks per month] | patients showing a greater than 60% reduction in the frequency of severe attacks ([3]; montelukast 10 mg tablets daily, 3-month treatment vs 2-month baseline, 17 patients) [%] | patients with reduction in frequency of severe attacks after dose escalation ([3]; of 4 patients escalated from 10 mg once daily to 10 mg twice daily) [patients] | patients with a 33% or greater reduction in the frequency of severe attacks ([3]; of the remaining 15 patients) [patients] | mean number of severe attacks per month during treatment ([3]; severe category, baseline 2.78, p<0.025) [attacks per month] | users reporting headaches as unwanted side effect (asthma patients [1]; zileuton 4 times daily at 600 mg, placebo 24.0%) [%] |
| --- | --- | --- | --- | --- | --- | --- | --- | --- | --- | --- | --- | --- | --- | --- | --- | --- | --- |
| COc1cc(C(=O)NS(=O)(=O)c2ccccc2C)ccc1Cc1cn(C)c2ccc(NC(=O)OC3CCCC3)cc12 [zafirlukast] | benefitted more from that treatment than from any other treatment | 12.9 | appear to block; also recorded: some level of activity | about 4 weeks | generally safe, well-tolerated, and free of serious side effects | do not appear to block | appear to block; also recorded: some level of activity |  |  |  |  |  |  |  |  |  |  |
| CC(C)(O)c1ccccc1CC[C@@H](SCC1(CC(=O)O)CC1)c1cccc(/C=C/c2ccc3ccc(Cl)cc3n2)c1 [montelukast] |  |  |  |  | generally safe, well-tolerated, and free of serious side effects |  |  | 18.4 | no adverse events were reported; also recorded: None of the patients reported any adverse effects | 70 | 2.02 | 4.68 | 41 | 4 | 13 | 1.31 |  |
| CC(c1cc2ccccc2s1)N(O)C(N)=O (stereo not drawn) [zileuton] |  |  |  |  |  |  |  |  |  |  |  |  |  |  |  |  | 24.6 |
